In brackets after ≈: the same amount, converted by molar mass.
Experiments:
[1] = biological target: T1, Peroxisome proliferator-activated receptor alpha (Homo sapiens, UniProt Q07869); assay: Activity at PPARalpha receptor
T1 sequence (Q07869 whole entry): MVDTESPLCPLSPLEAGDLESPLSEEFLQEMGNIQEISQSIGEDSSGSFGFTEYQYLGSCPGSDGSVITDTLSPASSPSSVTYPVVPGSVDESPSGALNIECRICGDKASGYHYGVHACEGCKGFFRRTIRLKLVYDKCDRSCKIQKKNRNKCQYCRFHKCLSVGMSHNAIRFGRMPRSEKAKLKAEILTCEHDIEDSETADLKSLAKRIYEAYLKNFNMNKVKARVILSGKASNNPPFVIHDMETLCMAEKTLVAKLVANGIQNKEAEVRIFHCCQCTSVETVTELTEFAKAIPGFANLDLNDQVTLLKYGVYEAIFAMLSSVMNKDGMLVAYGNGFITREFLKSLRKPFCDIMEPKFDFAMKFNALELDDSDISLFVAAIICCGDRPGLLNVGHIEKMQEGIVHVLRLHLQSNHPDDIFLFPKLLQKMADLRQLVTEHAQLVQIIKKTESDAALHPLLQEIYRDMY

Cytochrome P450 3A4 = Cytochrome P450 3A4 (Homo sapiens, UniProt P08684); assay: Inhibition of CYP3A4; assay type: ADME
Sequence of Cytochrome P450 3A4 (P08684 whole entry): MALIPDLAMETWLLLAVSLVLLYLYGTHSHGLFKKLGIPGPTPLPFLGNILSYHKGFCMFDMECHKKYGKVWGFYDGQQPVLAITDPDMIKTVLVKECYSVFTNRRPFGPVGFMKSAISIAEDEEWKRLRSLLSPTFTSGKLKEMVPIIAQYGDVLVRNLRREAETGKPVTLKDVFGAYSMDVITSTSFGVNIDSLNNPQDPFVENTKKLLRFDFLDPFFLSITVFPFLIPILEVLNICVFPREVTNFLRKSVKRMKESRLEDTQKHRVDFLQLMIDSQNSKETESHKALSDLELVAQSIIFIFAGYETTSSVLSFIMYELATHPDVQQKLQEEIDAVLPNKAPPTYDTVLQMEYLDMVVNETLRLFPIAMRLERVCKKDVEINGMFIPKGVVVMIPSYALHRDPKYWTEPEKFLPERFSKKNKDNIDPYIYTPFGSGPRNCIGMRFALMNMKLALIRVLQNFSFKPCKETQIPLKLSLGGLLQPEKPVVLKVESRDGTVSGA

Cytochrome P450 2C19 = Cytochrome P450 2C19 (Homo sapiens, UniProt P33261); assay: Inhibition of CYP2C19; assay type: ADME
Sequence of Cytochrome P450 2C19 (P33261 whole entry): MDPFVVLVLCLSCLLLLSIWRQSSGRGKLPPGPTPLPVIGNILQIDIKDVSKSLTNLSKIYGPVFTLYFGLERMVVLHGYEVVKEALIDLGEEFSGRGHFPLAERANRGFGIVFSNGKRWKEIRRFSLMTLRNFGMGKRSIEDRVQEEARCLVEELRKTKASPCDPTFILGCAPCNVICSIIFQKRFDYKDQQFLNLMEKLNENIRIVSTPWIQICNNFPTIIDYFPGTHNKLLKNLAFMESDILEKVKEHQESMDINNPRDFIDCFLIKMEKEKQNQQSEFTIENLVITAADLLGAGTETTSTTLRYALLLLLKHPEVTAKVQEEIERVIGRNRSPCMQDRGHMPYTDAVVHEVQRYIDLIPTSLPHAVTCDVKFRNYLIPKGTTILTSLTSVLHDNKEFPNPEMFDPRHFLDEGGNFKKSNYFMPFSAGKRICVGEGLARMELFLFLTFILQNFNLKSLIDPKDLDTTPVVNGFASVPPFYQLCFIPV

[2] = biological target: Prostaglandin E2 receptor EP4 subtype (Homo sapiens, UniProt P35408); assay: Activity at EP4 receptor
Sequence of Prostaglandin E2 receptor EP4 subtype (P35408 whole entry): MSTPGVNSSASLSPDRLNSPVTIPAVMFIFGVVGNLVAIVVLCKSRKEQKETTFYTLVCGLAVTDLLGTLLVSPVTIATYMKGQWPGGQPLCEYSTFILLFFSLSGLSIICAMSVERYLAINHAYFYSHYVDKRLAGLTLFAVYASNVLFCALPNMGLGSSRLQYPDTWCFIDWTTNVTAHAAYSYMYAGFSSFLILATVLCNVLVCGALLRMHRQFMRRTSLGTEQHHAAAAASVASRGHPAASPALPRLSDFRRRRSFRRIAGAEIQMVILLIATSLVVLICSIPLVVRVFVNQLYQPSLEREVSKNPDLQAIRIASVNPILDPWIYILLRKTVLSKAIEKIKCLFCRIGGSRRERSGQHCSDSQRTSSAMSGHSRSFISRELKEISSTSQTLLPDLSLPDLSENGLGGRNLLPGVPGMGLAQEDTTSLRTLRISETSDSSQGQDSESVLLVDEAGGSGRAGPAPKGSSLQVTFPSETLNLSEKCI

[3] = biological target: T2, Prostaglandin E2 receptor EP3 subtype (Homo sapiens, UniProt P43115); assay: Activity at EP3 receptor
T2 sequence (P43115 whole entry): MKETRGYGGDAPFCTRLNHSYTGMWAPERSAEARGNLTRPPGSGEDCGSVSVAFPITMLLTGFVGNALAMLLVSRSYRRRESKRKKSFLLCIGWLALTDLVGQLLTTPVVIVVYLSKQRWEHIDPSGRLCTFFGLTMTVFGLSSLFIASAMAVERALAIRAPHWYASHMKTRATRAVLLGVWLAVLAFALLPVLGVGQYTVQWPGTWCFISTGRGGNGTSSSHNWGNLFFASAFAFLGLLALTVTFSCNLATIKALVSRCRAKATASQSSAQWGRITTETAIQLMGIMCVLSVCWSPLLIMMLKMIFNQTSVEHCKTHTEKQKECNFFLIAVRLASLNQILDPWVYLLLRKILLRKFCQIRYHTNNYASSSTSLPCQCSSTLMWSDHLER

[4] = Bioavailability in rat; assay type: ADME, organism-based; conditions: in vivo
Homo sapiens [5] = species: Homo sapiens; assay: Selectivity for GPR40 over GPR43
[6] = Solubility at pH 7.4; assay type: physicochemical; conditions: buffer
Homo sapiens [7] = species: Homo sapiens; assay: Selectivity for GPR40 over GPR41
[8] = biological target: Free fatty acid receptor 1 (Homo sapiens, UniProt O14842); assay: Agonist activity at GPR40 receptor expressed in CHO cells by reporter gene assay; assay type: functional, cell-based
Sequence of Free fatty acid receptor 1 (O14842 whole entry): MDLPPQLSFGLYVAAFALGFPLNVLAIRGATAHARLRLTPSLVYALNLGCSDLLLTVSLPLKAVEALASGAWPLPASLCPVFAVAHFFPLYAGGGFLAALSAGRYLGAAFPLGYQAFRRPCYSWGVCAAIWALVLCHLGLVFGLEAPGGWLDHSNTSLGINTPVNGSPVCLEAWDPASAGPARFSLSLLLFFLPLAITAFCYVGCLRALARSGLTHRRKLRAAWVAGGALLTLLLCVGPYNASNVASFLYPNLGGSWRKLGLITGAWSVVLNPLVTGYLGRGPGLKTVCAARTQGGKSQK

Cytochrome P450 2D6 = Cytochrome P450 2D6 (Homo sapiens, UniProt P10635); assay: Inhibition of CYP2D6; assay type: ADME
Sequence of Cytochrome P450 2D6 (P10635 whole entry): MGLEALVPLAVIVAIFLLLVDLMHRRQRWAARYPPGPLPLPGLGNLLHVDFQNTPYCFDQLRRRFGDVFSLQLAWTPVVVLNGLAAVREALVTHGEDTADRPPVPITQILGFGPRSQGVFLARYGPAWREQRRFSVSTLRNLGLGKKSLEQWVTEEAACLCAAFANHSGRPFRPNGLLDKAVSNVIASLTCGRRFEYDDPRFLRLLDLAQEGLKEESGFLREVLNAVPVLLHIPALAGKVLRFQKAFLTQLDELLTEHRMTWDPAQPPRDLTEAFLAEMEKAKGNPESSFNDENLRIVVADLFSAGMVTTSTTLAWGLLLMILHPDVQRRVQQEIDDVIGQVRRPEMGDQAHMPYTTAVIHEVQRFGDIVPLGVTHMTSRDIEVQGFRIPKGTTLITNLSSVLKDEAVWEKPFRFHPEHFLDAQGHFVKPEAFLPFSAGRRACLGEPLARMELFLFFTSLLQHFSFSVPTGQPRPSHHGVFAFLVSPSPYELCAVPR

Cytochrome P450 1A2 = biological target: T3, Cytochrome P450 1A2 (Homo sapiens, UniProt P05177); assay: Inhibition of CYP1A2; assay type: ADME
T3 sequence (P05177 whole entry): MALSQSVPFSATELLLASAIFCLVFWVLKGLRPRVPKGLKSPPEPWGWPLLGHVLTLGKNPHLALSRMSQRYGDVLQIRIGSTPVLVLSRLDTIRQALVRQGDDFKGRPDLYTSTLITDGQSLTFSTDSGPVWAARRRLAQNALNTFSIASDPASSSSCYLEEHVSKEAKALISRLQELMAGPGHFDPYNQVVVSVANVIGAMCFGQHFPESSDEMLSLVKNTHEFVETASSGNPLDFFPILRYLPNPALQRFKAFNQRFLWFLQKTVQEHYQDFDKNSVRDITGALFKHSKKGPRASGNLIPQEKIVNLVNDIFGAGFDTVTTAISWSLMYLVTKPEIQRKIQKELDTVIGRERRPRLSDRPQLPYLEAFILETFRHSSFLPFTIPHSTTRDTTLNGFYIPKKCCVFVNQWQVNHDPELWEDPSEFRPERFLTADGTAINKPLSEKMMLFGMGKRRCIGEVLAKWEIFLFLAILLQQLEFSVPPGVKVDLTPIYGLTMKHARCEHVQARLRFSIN

[9] = biological target: T4, Free fatty acid receptor 3 (Homo sapiens, UniProt O14843); assay: Activity at GPR41 receptor
T4 sequence (O14843 whole entry): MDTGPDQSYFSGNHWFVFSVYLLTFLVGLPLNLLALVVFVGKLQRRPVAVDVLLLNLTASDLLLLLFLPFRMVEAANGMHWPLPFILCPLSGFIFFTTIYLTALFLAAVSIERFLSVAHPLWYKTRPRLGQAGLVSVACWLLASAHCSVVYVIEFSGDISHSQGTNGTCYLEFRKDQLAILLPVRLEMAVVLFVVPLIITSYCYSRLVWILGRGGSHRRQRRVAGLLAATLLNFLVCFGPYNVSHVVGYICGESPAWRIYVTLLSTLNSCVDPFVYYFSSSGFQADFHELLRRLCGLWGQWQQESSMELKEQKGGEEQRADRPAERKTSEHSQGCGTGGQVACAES

[10] = biological target: T5, Prostaglandin E2 receptor EP1 subtype (Homo sapiens, UniProt P34995); assay: Activity at EP1 receptor
T5 sequence (P34995 whole entry): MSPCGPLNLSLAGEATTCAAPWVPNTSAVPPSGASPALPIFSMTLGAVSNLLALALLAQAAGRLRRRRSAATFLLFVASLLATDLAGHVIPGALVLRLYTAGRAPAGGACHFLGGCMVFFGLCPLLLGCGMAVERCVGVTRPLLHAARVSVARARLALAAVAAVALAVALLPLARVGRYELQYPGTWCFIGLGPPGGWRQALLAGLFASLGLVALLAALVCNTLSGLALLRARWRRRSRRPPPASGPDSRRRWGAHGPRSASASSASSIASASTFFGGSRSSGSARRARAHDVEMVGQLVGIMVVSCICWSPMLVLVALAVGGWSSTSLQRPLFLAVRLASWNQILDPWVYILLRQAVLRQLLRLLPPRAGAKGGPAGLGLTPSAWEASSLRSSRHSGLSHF

[11] = Half life in po dosed rat; assay type: ADME, organism-based; conditions: in vivo
[12] = biological target: T6, Free fatty acid receptor 2 (Homo sapiens, UniProt O15552); assay: Activity at GPR43 receptor
T6 sequence (O15552 whole entry): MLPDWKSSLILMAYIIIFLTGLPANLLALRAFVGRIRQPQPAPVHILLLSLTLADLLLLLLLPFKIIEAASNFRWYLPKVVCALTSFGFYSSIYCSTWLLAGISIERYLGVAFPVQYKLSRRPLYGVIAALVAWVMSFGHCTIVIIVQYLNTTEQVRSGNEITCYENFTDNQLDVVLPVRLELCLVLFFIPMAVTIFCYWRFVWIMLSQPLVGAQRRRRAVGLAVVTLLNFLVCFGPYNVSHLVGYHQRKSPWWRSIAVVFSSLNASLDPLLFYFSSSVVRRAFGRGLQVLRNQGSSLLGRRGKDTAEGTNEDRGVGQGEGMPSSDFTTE

[13] = Protein binding in rat plasma by ultrafiltration assay; assay type: ADME, cell-free; conditions: read-out: PB

Ki [1]: > 3.16 µM
IC50 (Cytochrome P450 3A4): > 33 µM
IC50 (Cytochrome P450 2C19): > 33 µM
Ki [2]: > 3.16 µM
Ki [3]: 0.398 µM
bioavailability [4]: 65%
Fold change (Homo sapiens [5]): > 500
solubility [6]: 290 µg/mL (≈ 835 µM)
Fold change (Homo sapiens [7]): 500
%max [8]: 69%
IC50 (Cytochrome P450 2D6): > 33 µM
IC50 (Cytochrome P450 1A2): > 33 µM
EC50 [9]: > 50.1 µM
Ki [10]: > 1.58 µM
half-life [11]: 5.9 h
EC50 [12]: > 50.1 µM
fraction unbound [13]: < 0.004
SMILES: O=C(O)CCc1ccc(NCc2cccc(Oc3ccccc3)c2)cc1 [GW9508]

Reference: ChEMBL document CHEMBL1146379, “Solid phase synthesis and SAR of small molecule agonists for the GPR40 receptor” (Bioorg Med Chem Lett, 2007)
